How the values were obtained:
Paraventricular neurons = experiment: Reactive oxygen species production (DHE/ethidium fluorescence) in neurons challenged with aldosterone; type: cell-based, SD rats; conditions: mean±SE
Method: Paraventricular neurons were isolated from 22 day old female SD rats, dissociated and cultured on round coverslips and maintained in HBSS media for at least 48 hours prior to visualization by confocal microscopy. All cells were pre-incubated in 10 nM ALDO for 48 hours and then 1.0 μM Ang-(1-7) or 1.0 μM Ang-(1-7)+10.0 μM […] for 2 hours prior to testing with acute 1.0 μM Aldo. To measure ROS, changes in the ethidium fluorescence were measured which is directly proportional to the oxidation of dihydroethidium (DHE) by ROS. The cells were loaded with DHE (20 μM) added to the cell culture media for 1 h and then placed in a chamber for microscopic visualization of fluorescence. One-way ANOVAs for the experimental groups response to acute Aldo was determined. After establishing a significant ANOVA, post-hoc analyses were performed with Tukey multiple comparison tests between pairs of mean change scores. All data are expressed as means±SE. Statistical significance was set at P<0.05. Perfusion with 1.0 μM ALDO increased ROS (D=113.4+28%) in the PVN neurons. […] Pre-incubation in Ang-(1-7)+[…], restored the ALDO increase in ROS (Delta=105.9+9%). Change in ROS production was standardized relative to control state prior to ALDO treatment during ACSF incubation. ANOVA followed by Tukey's post hoc test was used for statistical comparisons between control and ALDO treatment. […]

CHF mice [1] = experiment: Morris water maze task (spatial memory) in mice with congestive heart failure after myocardial infarction; type: in vivo; conditions: 50 mcg/kg/hr subcutaneously for 4 weeks from 8 weeks post MI, first day of testing
Method: Prior to MI, the controls and CHF mice groups performed similarly on the Morris water task. Myocardial infarction and subsequent CHF was induced by ligation of the left coronary artery. By week 4 and week 8 post MI, CHF mice had approximately 50 and 70% decline in ejection fraction as measured by echocardiography. […] Animals were tested over 4 days with 6 spatial trials per day.
(§1) In addition, the invention provides a preclinical animal model of cardiovascular disease and congestive heart failure induced cognitive dysfunction. A total of 26, male C57B1/6J mice were randomly assigned to the control group or cardiovascular disease and congestive heart failure group. Myocardial infarction was induced by ligation of the left coronary artery. By week 4 and week 8 post MI, cardiovascular disease and congestive heart failure mice (n=15) had approximately 50 and 70% decline in ejection fraction as measured by echocardiography. Mice were tested for changes in spatial learning memory via the Morris water task and object recognition via the standard spontaneous object recognition (SOR) task at 4 and 8 weeks post MI. At 8 weeks post MI, a subgroup of cardiovascular disease and congestive heart failure mice (n=6) and the control mice (n=4) were given 50 mcg/kg/hr Angiotensin (1-7) or saline subcutaneously for 4 weeks and then cognitive function was retested. […]

CHF mice [2] = experiment: Ejection fraction by echocardiography in CHF mice; type: in vivo; conditions: systemic treatment 50 mcg/kg/hr subcutaneously
Method: Myocardial infarction and subsequent CHF was induced by ligation of the left coronary artery. By week 4 and week 8 post MI, CHF mice (n=15) had approximately 50 and 70% decline in ejection fraction as measured by echocardiography. For the object recognition SOR test at 8 weeks post MI, discrimination ratios were calculated from the time spent exploring the novel versus familiar object during the test phase. […] At 8 weeks post MI, a subgroup of CHF mice (n=6) and controls (n=4) were given 50 mcg/kg/hr Angiotensin (1-7) or saline subcutaneously for 4 weeks and then cognitive function was retested.
as §1, with “MI.” for “MI. At 8 weeks post MI, a subgroup of cardiovascular disease and congestive heart failure mice (n=6) and the control mice (n=4) were given 50 mcg/kg/hr Angiotensin (1-7) or saline subcutaneously for 4 weeks and then cognitive function was retested.”

CHF mice [3] = experiment: Spontaneous (novel) object recognition (SOR) test in mice with congestive heart failure after myocardial infarction; type: in vivo; conditions: CHF mice (n=6), 50 mcg/kg/hr subcutaneously from 8 weeks post MI, after 3 weeks of treatment; controls +0.25±0.2, CHF+saline −0.21±0.1
Method: Mice were 12 weeks post MI or sham surgery. Six mice were MI+Ang(1-7); three mice were MI+saline; and four mice were Sham+Ang (1-7). Alzet pumps with either Ang(1-7) or saline were implanted sq 3 weeks prior to NOR test. Novel object recognition test was performed 3 weeks post pump implant. Data shown are 1st 2 min of “test phase” DRatio=(t novel−t familiar)/(t novel+t familiar). A positive score indicates more time spent with the novel object, a negative score indicates more time spent with the familiar object, and a zero score indicates a null preference. *=p<0.05, #=p<0.05. ANOVA+posthoc Turkey test.
Myocardial infarction and subsequent CHF was induced by ligation of the left coronary artery. By week 4 and week 8 post MI, CHF mice (n=15) had approximately 50 and 70% decline in ejection fraction as measured by echocardiography. For the object recognition SOR test at 8 weeks post MI, discrimination ratios were calculated from the time spent exploring the novel versus familiar object during the test phase. […]
In addition, the invention provides a preclinical animal model of cardiovascular disease and congestive heart failure induced cognitive dysfunction. […] By week 4 and week 8 post MI, cardiovascular disease and congestive heart failure mice (n=15) had approximately 50 and 70% decline in ejection fraction as measured by echocardiography. […]

Compound	Change in ROS (D) relative to control state prior to ALDO treatment (Paraventricular neurons; PVN neurons, perfusion with 1.0 μM ALDO, no Ang-(1-7) pre-incubation)	Performance in Morris water maze task after treatment (CHF mice [1])	Change in ROS (D) on ALDO, relative to control state prior to ALDO treatment (Paraventricular neurons; PVN neurons pre-incubated 2 hours in 1.0 μM Ang-(1-7), then acute 1.0 μM ALDO)	Ejection fraction (CHF mice [2])	SOR discrimination ratio (CHF mice [3])
C[C@]12CCC(=O)C=C1CC[C@@H]1[C@@H]2[C@@H](O)C[C@]2(C=O)[C@@H](C(=O)CO)CC[C@@H]12 [ALDO, Aldosterone, reference compound]	113.4+28%	–	–	–	–
angiotensin-(1-7) (DRVYIHP; Angiotensin 1-7; UniProt P01019 25-31, looked up) [Ang-(1-7), endogenous peptide derived from Angiotensin II via ACE2]	–	significant improvement on object recognition memory on the first day of testing	6.4+27%	not significantly impacted	+0.43±0.1

Source: US20190134145A1, “METHOD FOR TREATING COGNITIVE DYSFUNCTION” (ARIZONA BOARD OF REGENTS ON BEHALF OF THE UNIVERSITY OF …, priority 2013, published 2019)
